Source: paper PMC9503446, “Effects of Medicinal Leech-Related Cationic Antimicrobial Peptides on Human Blood Cells and Plasma” (Molecules, 2022)
≈ marks a conversion by molar mass, not a printed value. Residues, ends and D or L forms follow the SMILES beside them. No end group written: not given here.

Tests used:
[1] = system: blood plasma coagulation (intrinsic and final common pathways); assay: Plasma coagulation assay, activated partial thromboplastin time (APTT); set-up: species or system human; settings: for APTT change from the control value: 25, 50, 100 μM peptide in plasma; for APTT prolongation versus control: 15 min pre-incubation at room temperature
Experimental: (§1) Plasma samples (50 μL) were incubated for 15 min at room temperature with 0, 25, 50 or 100 μM CAMP, and then the coagulation assay steps were carried out according the manufacturer’s instructions.
(§2) The plasma coagulation tests were performed using an APG4-03-Pkh hemostasis analyzer (EMCO Llc, Moscow, Russia) and MLT-APTT and MLT-THROMBOPLASTIN reagent kits (MLT Llc, Moscow, Russia) according to the manufacturer’s instructions. Testing was performed on Plasma N (normal), a mixed pool of citrate anticoagulated plasma obtained from healthy donors, manufactured by RENAM Rpd, Moscow, Russia. Fifty microliter plasma samples supplemented with CAMPs at different concentrations (or with PBS as control) were pre-incubated at room temperature for 15 min. Afterward, in case of measuring activated partial thromboplastin time (APTT), 50 μL of APTT Reagent were added. The samples were warmed at 37 °C for 3 min, and 50 μL of Calcium Chloride Solution were added to initiate fibrin clot formation. For measuring prothrombin time (PT), pre-incubated plasma samples were warmed at 37 °C for 1 min, and fibrin clot formation was triggered by adding 100 μL of Thromboplastin Reagent.

[2] = system: blood plasma coagulation (extrinsic and common pathways); assay: Plasma coagulation assay, prothrombin time (PT); set-up: species or system human; settings: for Effect on PT: 25, 50, 100 μM peptide in plasma; for PT increase compared to control: 15 min pre-incubation at room temperature
Experimental: as §1, §2

Escherichia coli = settings: cited from earlier work
Text: Table 1 Cationic antimicrobial peptides (CAMPs) used in this study and their characteristics. | column: MIC, μM (E. coli)

isolated neutrophils = assay: Luminol-dependent chemiluminescence, neutrophil respiratory burst; type: cell-based, human; settings: for Neutrophil respiratory burst (luminol-dependent chemiluminescence) in response to peptide-pretreated plasma: final peptide 5 μM or 20 μM, final plasma dilution 1:50, 37 °C
Experimental: Neutrophils and plasma were obtained from the same person. Plasma diluted five times in complete Krebs–Ringer buffer solution was treated with 50 μM or 200 μM CAMP, with plasma dilution and CAMP concentrations being the same as in the samples for hemolysis assay. The final plasma content in samples for CL measurement was restricted to no higher than 2%, since plasma constituents can inhibit luminol-dependent CL due to the scavenging effect. Following the addition of luminol to neutrophils, light emission recording was started. Spontaneous cell activation, if it occurred, was allowed to complete, and then the CAMP-containing plasma or control plasma was added (Figure 6), yielding a final plasma dilution of 1:50 and a final CAMP concentration of 5 μM or 20 μM. […] The effect was dose-dependent (Figure 6).
Chemiluminescence study was conducted at 37 °C with a Lum-1200 chemiluminometer (DISoft Llc, Moscow, Russia) measuring the intensity of emitted light in volts. Assays were performed with the following components in a total volume of 500 μL:435 μL of neutrophil suspension (final, 0.5 × 10^6 cells/mL) in complete Krebs–Ringer buffer solution, 10 μL of luminol (final, 200 μM), 50 μL of five-fold diluted (in the above buffer solution) autologous plasma containing or not containing CAMP at a desired concentration, 5 μL of PMA (final, 160 nM).
Neutrophils were placed in chemiluminometer cuvettes and equilibrated at 37 °C in the cuvette holder, after which luminol was added to each sample and the light emission was continuously recorded. In desired time intervals, plasma mixed with CAMP (or control plasma) and then PMA were added.

[3] = system: neutrophils in whole blood; assay: Neutrophil extracellular trap (NET) assay in whole blood; type: cell-based, human; settings: for NET concentration versus control blood: 100 μM peptide, ex vivo blood, 3 h, 37 °C, no PMA
Experimental: EDTA-anticoagulated capillary blood was obtained via a finger prick. Blood aliquots of 20 μL were placed in 1.5 mL Eppendorf tubes and mixed with 2 μL of a CAMP solution (or 2 μL of PBS in controls). The samples were incubated for 3 h. After the first 1 h, PMA (100 nM final concentration) was added to a part of them, and incubation continued for a further 2 h. Cell settling was prevented by continuous gentle turning the tubes up and down using a Multi Bio RS-24 rotator (Biosan, Riga, Latvia). The blood was retained at the tube bottom by surface tension.
NET counts were performed using standardized blood smears stained by Romanowsky method. The smears were examined using a Motic B microscope (Motic, Xiamen, China). Quantitative assessment of NETs was performed as described previously. NETs among 300–500 leukocytes were counted in the middle third part of the smear, and the NETs-to-leukocyte percentage ratio was calculated. Based on counting results, the number of NETs in 1 μL of blood was calculated. In each experiment, two parallel samples were prepared and three parallel smears were taken from each at each observation point.

erythrocytes [4] = assay: Morphological observation of isolated erythrocytes (aggregation); type: cell-based, human
Experimental: Pept_3 stood out from the other four CAMPs in that it not only lysed, but also aggregated cells. An erythrocyte aggregate formed is illustrated by Figure 2. Samples for morphological observation of erythrocytes were the same as those for hemolysis assay. After incubation at 37 °C for 0.5 h, the samples were processed to fix with glutaraldehyde for qualitative morphological evaluation with light microscopy. A glutaraldehyde fixation method was applied for isolated cells to prevent damage that can occur during preparing smears, which are good for cells in blood.
Samples for morphological observation of erythrocytes were the same as those for hemolysis assay. After incubation at 37 °C for 0.5 h, the samples were centrifuged at 100× g for 5 min, following which the supernatant was removed and the cells fixed by resuspending them in 0.5 mL of 1% glutaraldehyde solution in PBS. Then, erythrocytes were left for 3 h at room temperature, with regular mixing. The fixed cells were stored at 4 °C until use. The supernatant over settled cells was withdrawn, and a cell aliquot was placed in a small workspace cut in the piece of scotch tape put on a microscope slide. Images were examined using a Motic B light microscope (Motic, Xiamen, China).

erythrocytes [5] = assay: Hemolysis assay in the presence of autologous plasma; type: cell-based, human
Experimental: The interaction with blood plasma constituents is known to play an important role in the pharmacokinetics and effectiveness of therapeutic agents. For CAMPs, the binding in plasma could decrease their effective concentration at the site of action and, thereby, their antimicrobial activity. To elucidate whether CAMP interaction with cells is affected by plasma, presumably through CAMP binding, we performed the hemolysis assay. The erythrocyte suspension was added to the same volume of PBS containing CAMP at two times the final concentration or PBS containing both CAMP and 20% autologous plasma. Calculations for extracellular hemoglobin were made based on the negative and positive control samples containing or not containing plasma.
The hemolytic activity of CAMPs was determined using a hemolysis assay measuring hemoglobin released from damaged cells. […] The supernatant (200 μL) was transferred to the wells of a microplate, and the absorbance of hemoglobin was measured by a Thermo Electron Multiskan Ascent microplate reader (Thermo Fisher Scientific Inc., Waltham, MA, USA), with a test wavelength of 414 nm as well as 540 nm and a background wavelength of 690 nm. The hemolysis percentage was calculated using the following equation: Hemolysis (%) = {(sample absorbance − negative control)/(positive control − negative control)} × 100.

mononuclear cells = assay: LDH release cytolysis assay, mononuclear cells; settings: 50 μM peptide, PBS, 0.5 h, 37 °C; Lysis solution = 100%
Experimental: (§3) The disruptive effect of peptides on the plasma membrane of mononuclear cells and neutrophils was evaluated by the leakage of lactate dehydrogenase (LDH) from damaged cells. Experiments were run in PBS as a medium without calcium and magnesium ions, not to favor neutrophil and monocyte activation.
(§4) Aliquots of cell suspension without or with CAMPs at different concentrations were incubated at 37 °C for 0.5 h. Then, the assay steps were carried out. In each experiment, there were both mononuclear cells and neutrophils from the same healthy subject.
(§5) The cytolytic activity of CAMPs against mononuclear cells and neutrophils was determined using a lactate dehydrogenase (LDH) assay measuring LDH released upon cell lysis. Working cell suspensions in PBS supplemented with […] glucose were adjusted to an optical density of 0.12 at 800 nm, which corresponded to a cell density of about 600 × 10^3 cells/mL. LDH assay was performed using a Cytotoxicity Detection Kit^PLUS (LDH) (Roche Diagnostics, Mannheim, Germany) according to the manufacturer’s protocol. Then, 50 μL aliquots of CAMP solutions of different concentrations were placed in the wells of a microplate. The medium used for preparing CAMP solutions and the kit’s Lysis solution served for negative and positive controls, respectively. […]

neutrophils = assay: LDH release cytolysis assay, neutrophils; settings: 50 μM peptide, PBS, 0.5 h, 37 °C; Lysis solution = 100%
Experimental: as §3, §4, §5

| Compound | APTT change from the control value [1] | Effect on PT [2] | MIC (E. coli) (Escherichia coli) | Neutrophil respiratory burst (luminol-dependent chemiluminescence) in response to peptide-pretreated plasma (isolated neutrophils) | NET concentration versus control blood [3] | other results |
| --- | --- | --- | --- | --- | --- | --- |
| FLIGKAIKRKFCLRSVWNA [pept_7, synthetic short cationic antimicrobial peptide designed by bioinformatic analysis of the medicinal leech genome and microbiome] | did not cause significant changes | did not cause significant changes | 14.3 µM | – | – | – |
| RLKRFKRVALRREKTARNFRSIVS [pept_6, synthetic short cationic antimicrobial peptide designed by bioinformatic analysis of the medicinal leech genome and microbiome] | – | no significant effect | >100 µM | – | – | APTT increase over the control value ([1]; 25 μM peptide in plasma): 1.3 fold; APTT increase over the control value ([1]; 50 μM peptide in plasma): 2.1 fold; APTT increase over the control value ([1]; 100 μM peptide in plasma): 2.9 fold |
| RAVIYKIPYNAIASRWIIAPKKC [pept_8, synthetic short cationic antimicrobial peptide designed by bioinformatic analysis of the medicinal leech genome and microbiome] | – | – | 24 µM | – | – | APTT prolongation versus control ([1]; 100 μM peptide in plasma): about 45% |
| CC(C)C[C@H](NC(=O)[C@H](Cc1ccccc1)NC(=O)[C@H](CS)NC(=O)[C@@H](NC(=O)[C@H](CC(C)C)NC(=O)[C@H](CCCNC(=N)N)NC(=O)[C@H](Cc1c[nH]c2ccccc12)NC(=O)[C@@H](N)CCCNC(=N)N)C(C)C)C(=O)N[C@@H](CS)C(=O)N[C@@H](CCCNC(=N)N)C(=O)N[C@@H](CCCNC(=N)N)C(=O)N[C@@H](CCCCN)C(=O)N[C@@H](CCCCN)C(=O)N[C@H](C(N)=O)C(C)C [pept_3] (H-RWRLVCFLCRRKKV-NH2; N-terminus and C-terminus assumed) | – | – | 17 µM (≈ 31.7 µg/mL) | CL increase, though relatively low | No significant difference | APTT prolongation versus control ([1]; 100 μM peptide in plasma): ~390%; PT increase compared to control ([2]; 25 μM peptide in plasma): about 165%; PT increase compared to control ([2]; 50 μM peptide in plasma): 320%; PT increase compared to control ([2]; 100 μM peptide in plasma): ~780%; Erythrocyte aggregation (erythrocytes [4]; 50 μM peptide in PBS, 0.5 h, 37 °C, glutaraldehyde fixation, light microscopy): induces erythrocyte aggregation; Erythrocyte aggregation, peptide preincubated with plasma (erythrocytes [4]; peptide preincubated with plasma): no cell aggregation was observed |
| KFKKVIWKSFL-NH2 (C-terminus assumed) [pept_4] | No significant APTT change | not significantly affected | 90 µM | no development of the respiratory burst | No significant difference | – |
| CCCCCCCCCCCCCC(=O)O[C@@H]1[C@@H](C)[C@@]2(O)[C@@H](C=C(CO)C[C@]3(O)C(=O)C(C)=C[C@@H]23)[C@@H]2C(C)(C)[C@]12OC(C)=O [PMA, phorbol-12-myristate-13-acetate, reference compound] | – | – | – | – | – | ROS production by neutrophils (luminol-dependent chemiluminescence) (isolated neutrophils; PMA added after CAMP-containing plasma, final 160 nM): induced a high ROS production; Neutrophil activation in whole blood (morphology) ([3]; 100 nM, with or without CAMPs): resulted in neutrophil activation |
| RPILIRVRRIRVI-NH2 (C-terminus assumed) [pept_5] | No significant APTT change | not significantly affected | 77 µM | no development of the respiratory burst | No significant difference | Effect of plasma on CAMP-induced hemolysis (erythrocytes [5]; 50 μM final peptide (100 μM mixed with five-fold diluted plasma)): complete inhibition; Effect of plasma on the hemolytic effect (erythrocytes [5]; 100 μM final peptide, autologous plasma final dilution 1:10, 0.5 h, 37 °C): completely inhibited; Lysis of mononuclear cells (LDH release) (mononuclear cells): about 20%; Lysis of neutrophils (LDH release) (neutrophils): ~15% |
